Several values for one entry are separate records, joined by “and”; a condition that tells them apart may be missing. Identical values can stand only once. Entries after “also recorded” stand apart in the source; their conditions may differ. Non-standard residues stand in square brackets, D forms with d. Residues, ends and D or L forms follow the SMILES beside them. ξ: configuration not given here. *: point of attachment. Benzoyl(2,6-F2) = O=C(c1c(F)cccc1F)*; Benzoyl(4-F) = O=C(c1ccc(F)cc1)*; ξR = N=C(N)NCCCC(N)C(=O)O; Nle = CCCC[C@H](N)C(=O)O; Bz = O=C(c1ccccc1)*; CF3 = FC(F)(F)*
Key:
[1] = molecular target: T1, DENV2 NS2B:NS3pro (Dengue virus type 2, UniProt P29990); assay: Biochemical protease activity assay, fluorogenic AMC substrate; design: species or system serotype II Dengue virus (DENV2); conditions: 50 mM HEPES pH 7.4, 150 mM NaCl, 10% ethylene glycol, 0.05% BSA, 0.0016% Brij-58; 80 nM enzyme; 20 μM Bz-nle-Lys-Arg-Arg-AMC; fluorescence 390/460 nm every 30 s for 30 min; three parameter IC50 fit
T1 construct: DENV2 NS3pro (1–185; amino acids 1476–1660 of the polyprotein); NS2B (containing amino acids 1394–1440 of the Dengue 2 polyprotein); His tag; made in house; host or cells: Escherichia coli BL21Star (DE3)
Procedure: Activity assays were carried out on a 96-well plate (white Cliniplate, Thermo Fisher Scientific Oy, Vantaa, Finland) in 50 mM HEPES, pH 7.4, 150 mM NaCl, 10% ethylene glycol, 0.05% BSA, 0.0016% Brij-58 with 80 nM enzyme using 20 μM Bz-nle-Lys-Arg-Arg-AMC (Bachem, Bubendorf, Switzerland) as substrate. Reagents were from Sigma (St. Louis, MO, USA) unless otherwise stated.
5 μl of 200 μM substrate in buffer and 2.5 μl of compound in DMSO or DMSO control were added to the plate. 42.5 μl of […] enzyme in buffer was added to start the reaction. Fluorescence was read every 30 s for 30 min at 390 nm excitation and 460 nm emission in a Fluorskan Ascent plate reader (Thermo Fisher Scientific Oy, Vantaa, Finland). Rates were fitted in the Ascent software and exported as Excel files. The rates were imported into GraphPad Prism (GraphPad Software Inc., La Jolla, CA, USA) and fitted to the standard three parameter IC50 equation.

[2] = molecular target: T1, DENV2 NS2B:NS3pro; assay: 19F NMR monitoring of inhibitor binding to wild-type NS2B:NS3pro; design: species or system serotype II Dengue virus (DENV2); conditions: 298 K
Source text: The subside part of peptide types of inhibitors either improves or prevents correct binding with the enzyme in the most favourable way. One way to probe stereo-selectivity in enzymes is to study an inhibitor with the wrong stereochemistry around the carbon, Cα, of the P1 (Arg) (for abbreviation see Table 1). The key question is: could both isomers bind to NS2B:NS3pro complex? If yes, is there any difference in affinity between them. To challenge these questions two separated diastereomers of Ph-Bz-Lys-Lys-Arg-CF3-ketone (III) (Table 1) with low affinity were used to observe the binding. The isolated diastereomers were kept in solution with and without the NS2B/NS3 complex for two months with measuring at several points. For the first separated isomer (IIIa), only one ^19F resonance is observed at − 82.83 ppm in the unbound state (Fig. 1a). […]
(§1) NMR experiments were acquired on Bruker Avance III spectrometers operating at 14.1 and 16.4 T at a temperature of 298 K. 2D ^1H-^15N TROSY -transverse relaxation optimized spectroscopy (TROSY) was used. ^19F experiments were acquired on a Bruker Avance III 16.4 T equipped with a QCIF CryoProbe, and internally referenced to the trifluoromethyl acetate counter ion (− 76.55 ppm). […] Protein detected experiments with ligand bound used a chemical shift perturbation (CSP) analysis was performed manually in CcpNmr Analysis 2.2.2 [60]. […]

[3] = molecular target: T1, DENV2 NS2B:NS3pro; assay: Low field 1D 1H NMR of NS2B:NS3pro complexes (LBHB, H51-D75); format: binding, serotype II Dengue virus (DENV2)
Procedure: The NS2B:NS3pro complex was concentrated in disposable centrifugal concentrators (e.g. Amicon Ultra centrifugal filter units) with a molecular weight cut-off of 10 kDa. The complex was stable during concentration and no leakage of NS2B occurred. Buffer was exchanged using gravity flow desalting columns (GE Healthcare). […] The buffer-exchanged protein was concentrated to at least 0.3 mM. To obtain spectra in D2O buffer protein complex with inhibitor was lyophilized and dissolved adding only D2O water.
(§2) NMR experiments were acquired on Bruker Avance III spectrometers operating at 14.1 and 16.4 T at a temperature of 298 K. 2D ^1H-^15N TROSY -transverse relaxation optimized spectroscopy (TROSY) was used. ^19F experiments were acquired on a Bruker Avance III 16.4 T equipped with a QCIF CryoProbe, and internally referenced to the trifluoromethyl acetate counter ion (− 76.55 ppm). For solvent isotope shift measurements the buffer was exchanged from 90% H2O to 90% D2O using centrifugation filters by following dilution of the sample till starting concentration. The consistency of the procedure has been tested through comparison of the ^1H-^15N spectra before and after buffer exchange back to starting condition. There was no major structural perturbations resulted from exchange into deuterated buffer conditions. Protein detected experiments with ligand bound used a chemical shift perturbation (CSP) analysis was performed manually in CcpNmr Analysis 2.2.2 [60]. CSP was defined as the distance between two cross peaks in Hz, obtained as the square root of the sum of quadratic using DANGLE [61].

[4] = molecular target: T1, DENV2 NS2B:NS3pro; conditions: earlier NMR study; cited from earlier work
Source text: The unusual large low-filed shift of N^δ1H (19.93 ppm) of H51 combined with a N-H splitting of only 52 Hz clearly indicated the ...

[5] = system: NS2B:NS3pro (S135A); assay: 19F and 1H-15N TROSY NMR binding to S135A mutant; design: species or system serotype II Dengue virus (DENV2); conditions: 1H-15N TROSY and 19F NMR
Source text: (§3) Reagents were from Sigma (St. Louis, MO, USA) unless otherwise stated. DENV2 NS3pro (1–185; amino acids 1476–1660 of the polyprotein) and NS2B (containing amino acids 1394–1440 of the Dengue 2 polyprotein) constructs were generated as described. H51N and S135A mutations of active site residues were introduced using the QuikChange Lightning kit (Agilent); a double H51N/S135A mutant was generated sequentially. All sequences were confirmed by Sanger sequencing. NS2B and NS3pro were expressed separately in Escherichia coli expression strain BL21Star (DE3) (Life Technologies) as described. Proteins were expressed in Terrific Broth medium (MP Biomedicals) for unlabelled protein or in different isotopic labelling combinations in ^1/2H, ^15N, ^12/13C-labelled M9 medium for labelled protein [54]. […]
as §1

[6] = molecular target: T1, DENV2 NS2B:NS3pro; assay: 19F NMR solvent isotope shift (H2O vs D2O), water accessibility of NS2B:NS3pro complex; design: species or system serotype II Dengue virus (DENV2); conditions: inhibitor bound to DENV2 NS2B:NS3pro
Procedure: The accessibility of water in the binding site of the complex with bound inhibitor was tested by studying the ^19F spectra of the complexes NS2B:NS3pro (II) in two different solvents: H2O and D2O (Fig. S2). […] This CSP was scaled versus the signals of the same group of the unbound ligand, ca 48 Hz (Fig. S2c). The conclusion is that ^19F nuclei of the benzene ring of the bound inhibitor are partly exposed to the solvent even in the bound state.
The NS2B:NS3pro complex was concentrated in disposable centrifugal concentrators (e.g. Amicon Ultra centrifugal filter units) with a molecular weight cut-off of 10 kDa. The complex was stable during concentration and no leakage of NS2B occurred. Buffer was exchanged using gravity flow desalting columns (GE Healthcare). The NMR buffer contained 20 mM deuterated MES, 100 mM NaCl, 5 mM CaCl2, 0.02% NaN3, at pH 6.5. […]
as §1

[7] = molecular target: T1, DENV2 NS2B:NS3pro; assay: 1H-15N TROSY chemical shifts/CSP, oxyanion hole and H51 of NS2B:NS3pro complexes; format: binding, serotype II Dengue virus (DENV2)
Procedure: The NS2B:NS3pro complex was concentrated in disposable centrifugal concentrators (e.g. Amicon Ultra centrifugal filter units) with a molecular weight cut-off of 10 kDa. The complex was stable during concentration and no leakage of NS2B occurred. Buffer was exchanged using gravity flow desalting columns (GE Healthcare). The NMR buffer contained 20 mM deuterated MES, 100 mM NaCl, 5 mM CaCl2, 0.02% NaN3, at pH 6.5. The buffer-exchanged protein was concentrated to at least 0.3 mM. To obtain spectra in D2O buffer protein complex with inhibitor was lyophilized and dissolved adding only D2O water.
as §2
Backbone resonance assignment of the NS2B:NS3pro with tetra peptide boronic acid (I) was performed as described previously by us with depositing to the BioMagResBank with accession code 26996 [10, 62], and compared with published earlier for the same inhibitor complex but with the linked construct Dengue I NS2B:NS3pro (BioMagResBank with accession code 19305). Backbone resonance assignment have been done in the same manner for the complex NS2B:NS3pro with the tetra peptide tfk ligand (II) as well and will be published elsewhere. Partial assignments of the ^1H and ^15N resonances presented in this publication of the apo form NS2B:NS3pro and its mutants in complex with inhibitors observed to the uncrowded area of the ^1H-^15N spectra are made by the extrapolation of corresponding cross peaks to the closest one known amino acids using CCPN program tool. […]

[8] = system: NS2B:NS3pro (H51N); assay: 19F and 1H-15N TROSY NMR binding to H51N mutant; design: species or system serotype II Dengue virus (DENV2); conditions: 1H-15N TROSY and 19F NMR, same protein:inhibitor ratio as wild type
Source text: as §3, §1

## CCCC[C@H](NC(=O)c1ccc(F)cc1)C(=O)N[C@@H](CCCCN)C(=O)N[C@@H](CCCNC(=N)N)C(=O)NC(CCCNC(=N)N)C(=O)C(F)(F)F (stereo partly drawn) [V, N-((9S,12S,15S)-1-amino-12-(4-aminobutyl)-9-(3-guanidinopropyl)-1-imino-8,11,14-trioxo-6-(2,2,2-trifluoroacetyl)-2,7,10,13-tetraazanonadecan-15-yl)-4-fluorobenzamide] ({Benzoyl(4-F)}-[Nle]KR[ξR]-CF3)
[1]
  IC50: 24 µM

## CCCC[C@H](NC(=O)c1ccccc1)C(=O)N[C@@H](CCCCN)C(=O)N[C@@H](CCCNC(=N)N)C(=O)NC(CCCNC(=N)N)C(=O)C(F)(F)F (stereo partly drawn) [IV, N-((9S,12S,15S)-1-amino-12-(4-aminobutyl)-9-(3-guanidinopropyl)-1-imino-8,11,14-trioxo-6-(2,2,2-trifluoroacetyl)-2,7,10,13-tetraazanonadecan-15-yl)benzamide] (Bz-[Nle]KR[ξR]-CF3)
[1]
  IC50: 11 µM

## Bz-Nle-Lys-Arg-Arg-CF3-ketone [IVa, isomer IVa of (IV), free 19F at − 82.82 ppm]
[2]
  Binding to NS2B:NS3pro / affinity in words (NMR): the signal of only one isomer (IVa) re-appeared

## CCCC[C@H](NC(=O)c1ccccc1)C(=O)N[C@@H](CCCCN)C(=O)N[C@@H](CCCNC(=N)N)C(=O)N[C@@H](CCCNC(=N)N)B(O)O [I, ((3S,6S,9S,12R)-17-amino-6-(4-aminobutyl)-3-butyl-9-(3-guanidinopropyl)-17-imino-1,4,7,10-tetraoxo-1-phenyl-2,5,8,11,16-pentaazaheptadecan-12-yl)boronic acid]
[3]; commonly 87-95 Hz
  Decrease of Nδ1H one-bond coupling vs commonly reported serine proteases: about 38 Hz
[3]; first tautomer
  One bond JNH of Nδ1H H51, 19.93 ppm signal: 52+/− 2 Hz and 52 Hz
  One bond JNH of Nε2H H51: 90+/− 2 Hz and 90 Hz
[3]; most persistent signal, pH 8.5 Tris
  Nδ1H of H51, second tautomer, 1H chemical shift: 19.77 ppm and 19.772 ppm
[3]; pH 5.5 to 8.5
  pH dependence of low field 1H chemical shift: None of the signals in this region shift between pH 5.5 and 8.5
[3]; pH 6.0 MES, not always observed
  Nδ1H of H51, first tautomer, 1H chemical shift: 19.93 ppm and 19.933 ppm
[3]; second tautomer
  One bond JNH of Nδ1H H51, 19.77 ppm signal: 52+/− 2 Hz and 52 Hz
[4]
  N-H splitting of Nδ1H of H51: 52 Hz
  NδH shift of H51 in complex: 19.93 ppm
[5]
  Binding to S135A mutant: do not interact with the S135A mutant; also recorded: no binding was observed; also recorded: complete absence of any binding
[2]
  Binding to NS2B:NS3pro / affinity in words (NMR): the former has higher affinity than the latter
[6]
  Bulk water access to active site: bulk water is excluded from the active site
[7]; apo 10.56 and 10.18 ppm
  H51-HN 1H chemical shift in complex: 10.03 ppm
[7]; apo 114.44 and 114.37 ppm
  H51-HN 15N chemical shift in complex: 113.50 ppm
[7]; complex vs apo form
  Amide CSP of the oxyanion hole: ~0.3 ppm
[7]; complex with NS2B:NS3pro
  Interaction with oxyanion hole: we did not observe interaction of G133 in the oxyanion hole; also recorded: no interaction with the oxyanion hole
[8]
  Affinity / complex formation with H51N mutant: saturation of the protease and inhibitor complex could not be reached

## CCCC[C@H](NC(=O)c1c(F)cccc1F)C(=O)N[C@@H](CCCCN)C(=O)N[C@@H](CCCNC(=N)N)C(=O)NC(CCCNC(=N)N)C(=O)C(F)(F)F (stereo partly drawn) [II, N-((9S,12S,15S)-1-amino-12-(4-aminobutyl)-9-(3-guanidinopropyl)-1-imino-8,11,14-trioxo-6-(2,2,2-trifluoroacetyl)-2,7,10,13-tetraazanonadecan-15-yl)-2,6-difluorobenzamide] ({Benzoyl(2,6-F2)}-[Nle]KR[ξR]-CF3)
[1]
  IC50: 19 µM

Source: publication PMC7249419, “Probing contacts of inhibitor locked in transition states in the catalytic triad of DENV2 type serine protease and its mutants by 1H, 19F and 15 N NMR spectroscopy” (BMC Molecular and Cell Biology, 2020)
